Values after ≈ are worked out from the molar mass of the structure shown.
What was measured:
[1] = Drug level in patient serum with bone and joint infection at 60 to 80 mg/kg/day, iv administered as continuous infusion for 42 days measured from day 11 to 21 by agar disk diffusion assay; type: ADME, organism-based; set-up: route intravenous; conditions: human, read-out: Drug uptake
Streptococcus = experiment: Antimicrobial activity against Streptococcus; type: functional
[2] = Ratio of drug level in bone to serum in patient with bone and joint infection at 60 to 80 mg/kg/day, iv administered as continuous infusion for 42 days; type: ADME, organism-based; set-up: route intravenous; conditions: human
[3] = Drug level in patient serum with bone and joint infection at 60 to 80 mg/kg/day, iv administered as continuous infusion for 42 days measured from day 2 to 10 by agar disk diffusion assay; type: ADME, organism-based; set-up: route intravenous; conditions: human, read-out: Drug uptake
Staphylococcus [4] = experiment: Ratio of drug level in patient serum with bone and joint infection to MIC90 for drug-susceptible Staphylococci
Staphylococcus [5] = experiment: Antimicrobial activity against methicillin-susceptible Staphylococcus; type: functional
[6] = Drug level in patient bone with bone and joint infection measured per gram of tissue at 60 to 80 mg/kg/day, iv administered as continuous infusion for 42 days measured on day 7 by agar disk diffusion assay; type: ADME, organism-based, Bone element; set-up: route intravenous; conditions: human, in vivo, 1008 h
Nucleic Acid = experiment: Ratio of drug level in patient bone with bone and joint infection to MIC90 for drug-susceptible Staphylococci; type: functional
Bacillus pumilus = experiment: Antimicrobial activity against Bacillus pumilus SJ1554; type: functional

concentration at 1008 h [1] [µg/mL] | MIC90 (Streptococcus) [µg/mL] | Kp at 1008 h [2] | concentration at 1008 h [3] [µg/mL] | MIC90 (Staphylococcus [5]) [µg/mL] | bone concentration [6] [µg/g] | MIC (Bacillus pumilus) [µg/mL] | SMILES | Ratio (Staphylococcus [4]) | Ratio (Nucleic Acid)
57 | 0.1 (≈ 0.22 µM) | 0.25 | 63 | 1 (≈ 2.2 µM) | 13.5 |  | Cc1nnc(SCC2=C(C(=O)O)N3C(=O)[C@@H](NC(=O)Cn4cnnn4)[C@H]3SC2)s1 [CEFAZOLIN] | 60.8 | 5
 |  |  |  |  |  | > 512 | C[C@@H]1O[C@@H]1P(=O)(O)O [FOSFOMYCIN] |  | 
 |  |  |  |  |  | > 128 | CO[C@H]1/C=C/O[C@@]2(C)Oc3c(C)c(O)c4c(O)c(c(/C=N/N5CCN(C)CC5)c(O)c4c3C2=O)NC(=O)/C(C)=C\C=C\[C@H](C)[C@H](O)[C@@H](C)[C@@H](O)[C@@H](C)[C@H](OC(C)=O)[C@@H]1C [RIFAMPIN] |  | 
